Experimental data as given in patent US11286268B1, “EIF4E-inhibiting compounds and methods” (EFFECTOR THERAPEUTICS, INC., priority 2019, dated 2022).
pIC50: −log10 of the molar value. Read-outs that look alike come from different tables or passages of the source.

Target: recombinant eIF4E (Homo sapiens (Human), UniProt P06730)
Experiment: Fluorescence polarization competition assay for eIF4E binding potency
Procedure, shortened: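 IC50 derived from fluorescence polarization over an 8-point, 3-fold compound series after 30 min room-temperature equilibration in the dark. Mix: eIF4E 75 nM pre-bound 5 min to 20 nM EDA-m^7GDP-ATTO-550; buffer 20 mM Tris pH 7.5, 100 mM NaCl, 1 mM DTT, 0.02% Tween-20; DMSO 1%.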

[1] = fluorescence polarization competition, 75 nM recombinant eIF4E, 20 nM EDA-m7GDP-ATTO-550, IC50 class, read-out: elF4E FP
[2] = inhibition of eIF4E/EDA-m7GDP-ATTO-550 binding by 50%, Table 4B calculated values, read-out: IC50

Sequence of recombinant eIF4E (P06730 whole entry): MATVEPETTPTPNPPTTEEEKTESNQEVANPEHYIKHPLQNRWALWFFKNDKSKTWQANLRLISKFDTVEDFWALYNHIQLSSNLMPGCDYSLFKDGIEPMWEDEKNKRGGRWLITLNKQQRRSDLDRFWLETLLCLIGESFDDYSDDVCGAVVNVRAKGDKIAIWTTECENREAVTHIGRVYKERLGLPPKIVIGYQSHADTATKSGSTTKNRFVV

Row | pIC50 [1] | pIC50 [2] | Compound
1 | > 7.30 | 7.94 | Cc1cc(-c2cc(Cl)ccc2OCCn2c(C)nc3cnc(-n4cccn4)c(C#N)c3c2=O)c2scc(C(=O)O)c2n1 [compound 984]
2 | > 7.30 | 8.17 | CNc1ncc2nc(C)n(CCOc3ccc(Cl)cc3-c3cc(C)nc4c(C(=O)O)csc34)c(=O)c2c1C#N [compound 985]
3 | > 7.30 | 7.77 | Cc1cc(-c2cc(Cl)ccc2OCCn2c(C)nc3cnc(N(C)c4ccccc4)c(C#N)c3c2=O)c2scc(C(=O)O)c2n1 [compound 986]
4 | > 7.30 | 7.87 | Cc1cc(-c2cc(Cl)ccc2OCCn2c(C)nc3c(-c4ccccc4)nc(N(C)C)c(C#N)c3c2=O)c2scc(C(=O)O)c2n1 [compound 987]
5 | > 7.30 | 7.66 | COC(C)c1ncc2nc(C)n(CCOc3ccc(Cl)cc3-c3cc(C)nc4c(C(=O)O)csc34)c(=O)c2c1C#N (stereo not shown) [compound 988]
6 | > 7.30 | 7.70 | C=C(c1ncc2nc(C)n(CCOc3ccc(Cl)cc3-c3cc(C)nc4c(C(=O)O)csc34)c(=O)c2c1C#N)C(F)(F)F [compound 989]
7 | > 7.30 | 7.49 | Cc1cc(-c2cc(Cl)ccc2OCCn2c(C)nc3cc(C(F)(F)F)c(-c4nccnc4C(F)(F)F)nc3c2=O)c2scc(C(=O)O)c2n1 [compound 990]
8 | > 7.30 | 7.92 | Cc1cc(-c2cc(Cl)ccc2OCCn2c(C)nc3cc(C(F)(F)F)c(N4CCC(Cl)CC4)c(C#N)c3c2=O)c2scc(C(=O)O)c2n1 [compound 991]
9 | 6.00 to 7.30 | 7.25 | Cc1cc(-c2cc(Cl)ccc2OCCn2c(C)nc3cc(C(F)(F)F)c(N4CCSCC4)c(C#N)c3c2=O)c2scc(C(=O)O)c2n1 [compound 992]
10 | > 7.30 | 7.81 | Cc1cc(-c2cc(Cl)ccc2OCCn2c(C)nc3cnc(-c4ccc5ncsc5c4)c(C#N)c3c2=O)c2scc(C(=O)O)c2n1 [compound 993]
11 | > 7.30 | 7.63 | Cc1cc(-c2cc(Cl)ccc2OCCn2c(C)nc3cnc(C4CC4C(F)(F)F)c(C#N)c3c2=O)c2scc(C(=O)O)c2n1 (stereo not shown) [compound 994]
12 | > 7.30 | 7.80 | Cc1cc(-c2cc(Cl)ccc2OCCn2c(C)nc3cc(C(F)(F)F)c(-c4nc(C(F)F)ccc4F)c(C#N)c3c2=O)c2scc(C(=O)O)c2n1 [compound 995]
13 | > 7.30 | 7.50 | Cc1cc(-c2cc(Cl)ccc2OCCn2c(C)nc3cc(C(F)(F)F)c(N(C)C)c(C#N)c3c2=O)c2scc(C(=O)O)c2n1 [compound 996]
14 | > 7.30 | 7.91 | Cc1cc(-c2cc(Cl)ccc2OCCn2c(C)nc3c(C)nc(-c4cc(Cl)ccc4F)c(C#N)c3c2=O)c2scc(C(=O)O)c2n1 [compound 997]
15 | > 7.30 | 7.35 | Cc1cc(-c2cc(Cl)ccc2OCCn2c(C)nc3c(C)nc(-c4cc(F)ccc4F)c(C#N)c3c2=O)c2scc(C(=O)O)c2n1 [compound 998]
16 | > 7.30 | 7.79 | Cc1cc(-c2cc(Cl)ccc2OCCn2c(C)nc3c(C)nc(-c4cc(F)ccc4Cl)c(C#N)c3c2=O)c2scc(C(=O)O)c2n1 [compound 999]
17 | > 7.30 | 7.78 | Cc1ccc(F)c(-c2ncc3cc(C)n(CCOc4ccc(Cl)cc4-c4cc(C)nc5c(C(=O)O)csc45)c(=O)c3c2C#N)n1 [compound 1000]
18 | > 7.30 | 7.51 | Cc1cc(-c2cc(Cl)ccc2OCCn2c(C)cc3cnc(-c4cc(F)cnc4C)c(C#N)c3c2=O)c2scc(C(=O)O)c2n1 [compound 1001]
19 | > 7.30 | 8.63 | Cc1cc(-c2cc(Cl)ccc2OCCn2c(C)cc3cnc(N(C)C)c(C#N)c3c2=O)c2scc(C(=O)O)c2n1 [compound 1002]
20 | > 7.30 | 7.87 | Cc1cc(-c2cc(Cl)ccc2OCCn2c(C)cc3cnc(N4CCC4)c(C#N)c3c2=O)c2scc(C(=O)O)c2n1 [compound 1003]
21 | > 7.30 | 7.65 | Cc1cc(-c2cc(Cl)ccc2OCCn2c(C)nc3cnc(O)c(C#N)c3c2=O)c2scc(C(=O)O)c2n1 [compound 1004]
22 | > 7.30 | 7.48 | Cc1cc(-c2cc(Cl)ccc2OCCn2c(C)nc3cn(C)c(=O)c(C#N)c3c2=O)c2scc(C(=O)O)c2n1 [compound 1005]
23 | > 7.30 | 7.74 | Cc1cc(-c2cc(Cl)ccc2OCCn2c(C)nc3cc(Cl)c(-c4ncco4)c(C#N)c3c2=O)c2scc(C(=O)O)c2n1 [compound 1006]
24 | > 7.30 | 7.32 | Cc1cc(-c2cc(Cl)ccc2OCCn2c(C)nc3cc(C(F)(F)F)c[n+]([O-])c3c2=O)c2scc(C(=O)O)c2n1 [compound 1007]
25 | > 7.30 | 7.82 | Cc1cc(-c2cc(Cl)ccc2OCCn2c(C)nc3c(-c4ccccc4)nc(N4CCC4)c(C#N)c3c2=O)c2scc(C(=O)O)c2n1 [compound 1008]

Row | pIC50 [1] | pIC50 [2] | Compound
26 | > 7.30 | 8.21 | COC1CN(c2c(C(F)(F)F)cc3nc(C)n(CCOc4ccc(Cl)cc4-c4cc(C)nc5c(C(=O)O)csc45)c(=O)c3c2C#N)C1 [compound 1009]
27 | > 7.30 | 8.28 | COC1CN(c2ncc3nc(C)n(CCOc4ccc(Cl)cc4-c4cc(C)nc5c(C(=O)O)csc45)c(=O)c3c2C#N)C1 [compound 1010]
28 | > 7.30 | 8.15 | Cc1cc(-c2cc(Cl)ccc2OCCn2c(C)nc3cnc(N4CC(O)C4)c(C#N)c3c2=O)c2scc(C(=O)O)c2n1 [compound 1011]
29 | > 7.30 | 8.05 | CCc1cc(-c2cc(Cl)ccc2OCCn2c(C)nc3cc(C(F)(F)F)c(-c4ccncc4)c(C#N)c3c2=O)c2scc(C(=O)O)c2n1 [compound 1012]
30 | > 7.30 | 7.73 | CCc1cc(-c2cc(Cl)ccc2OCCn2c(C)nc3cc(C(F)(F)F)c(-c4cccnc4)c(C#N)c3c2=O)c2scc(C(=O)O)c2n1 [compound 1013]
31 | > 7.30 | 7.59 | CCc1cc(-c2cc(Cl)ccc2OCCn2c(C)nc3cc(C(F)(F)F)c(-c4ccn(C)n4)c(C#N)c3c2=O)c2scc(C(=O)O)c2n1 [compound 1014]
32 | > 7.30 | 7.71 | CCc1cc(-c2cc(Cl)ccc2OCCn2c(C)nc3c(C)nc(-c4ccccc4)c(C#N)c3c2=O)c2scc(C(=O)O)c2n1 [compound 1015]
33 | > 7.30 | 8.95 | CCc1cc(-c2cc(Cl)ccc2OCCn2c(C)nc3cnc(-c4ccccc4)c(C#N)c3c2=O)c2scc(C(=O)O)c2n1 [compound 1016]
34 | > 7.30 | 8.08 | CCc1cc(-c2cc(Cl)ccc2OCCn2c(C)nc3cc(C(F)(F)F)c(-c4cc(F)cnc4C)c(C#N)c3c2=O)c2scc(C(=O)O)c2n1 [compound 1017]
35 | > 7.30 | 8.17 | Cc1cnc(-c2nc3c(=O)n(CCOc4ccc(Cl)cc4-c4cc(C)nc5c(C(=O)O)csc45)c(C)nc3cc2C(F)(F)F)cn1 [compound 1018]
36 | > 7.30 | 7.51 | Cc1cc(-c2cc(Cl)ccc2OCCn2c(C)nc3cc(C(F)(F)F)c(-c4nccnc4C)nc3c2=O)c2scc(C(=O)O)c2n1 [compound 1019]
37 | > 7.30 | 7.63 | Cc1cc(-c2cc(Cl)ccc2OCCn2c(C)nc3cc(C(F)(F)F)c(-c4cnc(C(F)F)cn4)nc3c2=O)c2scc(C(=O)O)c2n1 [compound 1020]
38 | > 7.30 | 7.68 | Cc1cc(-c2cc(Cl)ccc2OCCn2c(C)nc3cc(C(F)(F)F)c(-c4cncc(C(F)(F)F)n4)nc3c2=O)c2scc(C(=O)O)c2n1 [compound 1021]
39 | > 7.30 | 7.37 | Cc1cnc(C)c(-c2nc3c(=O)n(CCOc4ccc(Cl)cc4-c4cc(C)nc5c(C(=O)O)csc45)c(C)nc3cc2C(F)(F)F)n1 [compound 1022]
40 | > 7.30 | 7.30 | Cc1cnc(-c2nc3c(=O)n(CCOc4ccc(Cl)cc4-c4cc(C)nc5c(C(=O)O)csc45)c(C)nc3cc2C(F)(F)F)c(C)n1 [compound 1023]
41 | > 7.30 | 7.62 | Cc1cnc(-c2nc3c(=O)n(CCOc4ccc(Cl)cc4-c4cc(C)nc5c(C(=O)O)csc45)c(C)nc3cc2C(F)(F)F)c(Cl)n1 [compound 1024]
42 | > 7.30 | 7.52 | Cc1cc(-c2cc(Cl)ccc2OCCn2c(C)nc3cc(C(F)(F)F)c(-c4cnc(C(F)F)cn4)c(C#N)c3c2=O)c2scc(C(=O)O)c2n1 [compound 1025]
43 | > 7.30 | 7.81 | Cc1cc(-c2cc(Cl)ccc2OCCn2c(C)nc3cc(C(F)(F)F)c(-c4cncc(C(F)(F)F)n4)c(C#N)c3c2=O)c2scc(C(=O)O)c2n1 [compound 1026]
44 | > 7.30 | 7.50 | Cc1cc(-c2cc(Cl)ccc2OCCn2c(C)nc3cc(C(F)(F)F)c(-c4nn(C)cc4C)c(C#N)c3c2=O)c2scc(C(=O)O)c2n1 [compound 1027]
45 | > 7.30 | 8.21 | Cc1cc(-c2cc(Cl)ccc2OCCn2c(C)nc3cc(C(F)(F)F)c(-c4cc(C)nn4C)c(C#N)c3c2=O)c2scc(C(=O)O)c2n1 [compound 1028]
46 | > 7.30 | 8.12 | Cc1cc(-c2cc(Cl)ccc2OCCn2c(C)nc3cc(C(F)(F)F)c(-c4cc(C)n(C)n4)c(C#N)c3c2=O)c2scc(C(=O)O)c2n1 [compound 1029]
47 | > 7.30 | 7.94 | Cc1cc(-c2cc(Cl)ccc2OCCn2c(C)nc3cc(C(F)(F)F)c(-c4cn(C)nc4C)c(C#N)c3c2=O)c2scc(C(=O)O)c2n1 [compound 1031]
48 | > 7.30 | 8.21 | Cc1cc(-c2cc(Cl)ccc2OCCn2c(C)nc3cc(C(F)(F)F)c(-c4cnn(C)c4C)c(C#N)c3c2=O)c2scc(C(=O)O)c2n1 [compound 1032]
49 | > 7.30 | 7.70 | Cc1cc(-c2cc(Cl)ccc2OCCn2c(C)nc3cc(C(F)(F)F)c(OCc4ccccn4)c(C#N)c3c2=O)c2scc(C(=O)O)c2n1 [compound 1033]
50 | > 7.30 | 7.42 | Cc1cc(-c2cc(Cl)ccc2OCCn2c(C)nc3cc(C(F)(F)F)c(OC4CC4)c(C#N)c3c2=O)c2scc(C(=O)O)c2n1 [compound 1034]
